For 11 compounds, IC50 results are on record in patent US11814375B2, “Heterocyclic compounds” (Hoffmann-La Roche Inc., priority 2019, dated 2023).

The target in this experiment is T1, MAGL (Homo sapiens, UniProt Q99685).
T1 sequence (Q99685 1-303): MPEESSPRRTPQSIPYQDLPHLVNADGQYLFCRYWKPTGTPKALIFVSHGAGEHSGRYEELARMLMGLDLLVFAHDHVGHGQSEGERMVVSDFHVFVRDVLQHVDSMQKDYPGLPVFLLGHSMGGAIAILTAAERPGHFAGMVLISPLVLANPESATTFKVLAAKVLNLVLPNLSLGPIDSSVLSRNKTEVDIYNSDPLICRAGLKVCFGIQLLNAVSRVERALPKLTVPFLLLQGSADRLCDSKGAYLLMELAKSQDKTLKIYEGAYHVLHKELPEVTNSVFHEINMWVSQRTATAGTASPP
Description: 2-AG assay: MAGL inhibitory activity by hydrolysis of 2-arachidonoylglycerol to arachidonic acid, followed by mass spectrometry. The experiment is classed as biochemical. Conditions: 8 μM 2-arachidonoylglycerol, 15 min preincubation and 30 min reaction at RT, arachidonic acid/d8-arachidonic acid ratio by MS. The protocol:
Compounds of formula (I) were profiled for MAGL inhibitory activity by determining the enzymatic activity by following the hydrolysis of the natural substrate 2-arachidonoylglycerol (2-AG) resulting in arachidonic acid, which can be followed by mass spectrometry. This assay is hereinafter abbreviated “2-AG assay”.
The 2-AG assay was carried out in 384 well assay plates (PP, Greiner Cat #784201) in a total volume of 20 μL. Compound dilutions were made in 100% DMSO (VWR Chemicals 23500.297) in a polypropylene plate in 3-fold dilution steps to give a final concentration range in the assay from 12.5 μM to […]. 0.25 μL compound dilutions (100% DMSO) were added to 9 μL MAGL in assay buffer (50 mM TRIS (GIBCO, 15567-027), 1 mM EDTA (Fluka, 03690-100 mL), 0.01% (v/v) Tween. After shaking, the plate was incubated for 15 min at RT. To start the reaction, 10 μL 2-arachidonoylglycerol in assay buffer was added. The final concentrations in the assay was […] and 8 μM 2-arachidonoylglyerol. After shaking and 30 min incubation at RT, the reaction was quenched by the addition of 40 μL of ACN containing 4 μM of d8-arachidonic acid. The amount of arachidonic acid was traced by an online SPE system (Agilent Rapidfire) coupled to a triple quadrupole mass spectrometer (Agilent 6460). A C18 SPE cartridge (G9205A) was used in an ACN/water liquid setup. The mass spectrometer was operated in negative electrospray mode following the mass transitions 303.1→259.1 for arachidonic acid and 311.1→267.0 for d8-arachidonic acid. The activity of the compounds was calculated based on the ratio of intensities [arachidonic acid/d8-arachidonic acid].
A word on the IC50: it is the midpoint of a concentration-inhibition curve. On to `O=C1CO[C@H]2CCN(C(=O)N3CC(c4ccc(-c5ccn[nH]5)cc4)C3)C[C@H]2N1` [Example 31, (4aR,8aS)-6-[3-[4-(1H-Pyrazol-5-yl)phenyl]azetidine-1-carbonyl]-4,4a,5,7,8,8a-hexahydropyrido[4,3-b][1,4]oxazin-3-one], for which the IC50 was 91.9 nM.
On to `O=C1CO[C@H]2CCN(C(=O)N3CC(c4ccc(Oc5cccc(Cl)c5)cc4)C3)C[C@H]2N1` [Example 20, (+)-(4aR,8aS)-6-[3-[4-(3-Chlorophenoxy)phenyl]azetidine-1-carbonyl]-4,4a,5,7,8,8a-hexahydropyrido[4,3-b][1,4]oxazin-3-one], for which the IC50 was found to be 0.06 nM.
The result for `Cn1ccc(-c2ccc(C3CN(C(=O)N4CC[C@@H]5OCC(=O)N[C@@H]5C4)C3)cc2)n1` [Example 42, (4aR,8aS)-6-[3-[4-(1-Methylpyrazol-3-yl)phenyl]azetidine-1-carbonyl]-4,4a,5,7,8,8a-hexahydropyrido[4,3-b][1,4]oxazin-3-one] reads 153 nM; that for `CC(C)(C)Cc1nc(-c2ccc(C3CN(C(=O)N4CC[C@@H]5OCC(=O)N[C@@H]5C4)C3)cc2)no1` [Example 37, (4aR,8aS)-6-[3-[4-[5-(2,2-Dimethylpropyl)-1,2,4-oxadiazol-3-yl]phenyl]azetidine-1-carbonyl]-4,4a,5,7,8,8a-hexahydropyrido[4,3-b][1,4]oxazin-3-one], 2.4 nM.
Next, `Cc1cccc(Oc2ccc(C3CN(C(=O)N4CC[C@@H]5OCC(=O)N[C@@H]5C4)C3)cc2)n1` [Example 26, (+)-(4aR,8aS)-6-[3-[4-[(6-Methyl-2-pyridyl)oxy]phenyl]azetidine-1-carbonyl]-4,4a,5,7,8,8a-hexahydropyrido[4,3-b][1,4]oxazin-3-one]: 3.9 nM; `O=C1CO[C@H]2CCN(C(=O)N3CC(c4ccc(Oc5cncc(F)c5)cc4)C3)C[C@H]2N1` [Example 8, (+)-(4aR,8aS)-6-[3-[4-[(5-Fluoro-3-pyridyl)oxy]phenyl]azetidine-1-carbonyl]-4,4a,5,7,8,8a-hexahydropyrido[4,3-b][1,4]oxazin-3-one]: 4.3 nM.
Regarding `O=C1CO[C@H]2CCN(C(=O)N3CC(c4ccc(-c5ccnn5CCF)cc4)C3)C[C@H]2N1` [Example 39, (4aR,8aS)-6-[3-[4-[2-(2-Fluoroethyl)pyrazol-3-yl]phenyl]azetidine-1-carbonyl]-4,4a,5,7,8,8a-hexahydropyrido[4,3-b][1,4]oxazin-3-one], the IC50 was determined as 6.7 nM.
As to `O=C1CO[C@H]2CCN(C(=O)N3CCN(c4ccc(Oc5ccccc5)cc4)CC3)C[C@H]2N1` [Example 58, (4aR,8aS)-6-[4-(4-Phenoxyphenyl)piperazine-1-carbonyl]-4,4a,5,7,8,8a-hexahydropyrido[4,3-b][1,4]oxazin-3-one], the IC50 was determined as 1100 nM.
The result for `COc1ccnc(Oc2ccc(C3CN(C(=O)N4CC[C@@H]5OCC(=O)N[C@@H]5C4)C3)cc2)n1` [Example 13, (+)-(4aR,8aS)-6-[3-[4-(4-Methoxypyrimidin-2-yl)oxyphenyl]azetidine-1-carbonyl]-4,4a,5,7,8,8a-hexahydropyrido[4,3-b][1,4]oxazin-3-one] reads 12.7 nM; that for `O=C1CO[C@H]2CCN(C(=O)N3CC(c4ccc(Oc5ccc(F)cc5F)cc4)C3)C[C@H]2N1` [Example 17, (+)-(4aR,8aS)-6-[3-[4-(2,4-Difluorophenoxy)phenyl]azetidine-1-carbonyl]-4,4a,5,7,8,8a-hexahydropyrido[4,3-b][1,4]oxazin-3-one], 0.1 nM.
The result for `O=C1CO[C@H]2CCN(C(=O)N3CC(c4ccc(Oc5cncc(Cl)c5)cc4)C3)C[C@H]2N1` [Example 9, (+)-(4aR,8aS)-6-[3-[4-[(5-Chloro-3-pyridyl)oxy]phenyl]azetidine-1-carbonyl]-4,4a,5,7,8,8a-hexahydropyrido[4,3-b][1,4]oxazin-3-one] reads 0.9 nM.
